Where a name gives a salt, the structure may show the parent alone.
Experiments:
[1] = system: MDA-MB435 breast carcinoma cell line; assay: Tetrazolium dye proliferation assay, MDA-MB435; format: cell-based; details: Homo sapiens, MDA-MB-435, 120 h; MTT, 5 days post addition of test compound, 2000 cells per well
Protocol: (§1) The cell lines used were MDA-MB435, a breast carcinoma dell line and RKO, a colon carcinoma cell line.
(§2) Teh estrogen receptor negative epithelial breast carcinoma line (MDA-MB435) was purchased from American Type Cell Culture Collection (ATCC; Rockville, Md.) and was grown in the medium recommended by ATCC. For analysis of the test compounds on growth of these cells, the cells were plated at 2000 cells per well in a 96-well tissue culture plate, and were incubated overnight at 37° C. with 5% CO2. The next day, the test compounds were dissolved in 100% dimethyl sulfoxide (DMSO) to yield a 10 mM stock solution. […] The compounds were then serially diluted in medium with 1.2% DMSO. One-fourth final volume of the diluted compounds was transferred to 96 well plates. Test compounds were assayed in duplicate. DMSO was added to a row of “control cells” such that the final concentration of DMSO in each well was 0.3%. Wells to which no cells were added served as the “blank.” Wells to which no inhibitor was added served as “no inhibitor control”. The plates were returned to the incubator, and 5 days post addition of test compound, were analyzed as described below.
(§3) 3-(4,5-Dimethylthiazole-2-yl)-2,5-diphenyl-2H-tetrazolium bromide (thiazolyl blue; MTT) was added to each well to yield a final concentration of 1 mglmL. The plates were then incubated at 37° C. for 3 hours. The plates were centrifuged at 1000 rpm for 5 minutes prior to aspiration of the MTT-containing medium. The MTT-containing medium was then removed and 100 μL 100% EtOH was added to each well to dissolve the resulting formazan metabolite. To ensure complete dissolution, plates were shaken for 15 minutes at room temperature. Absorbencies were read in a microliter plate reader (Molecular Dynamics) at a wavelength of 570 nm with a 650 nm reference. Percent inhibition was calculated by subtracting the absorbency of the blank (no cell) wells from all wells, then subtracting the division of the average absorbency of each test duplicate by the average of the controls from 1.00. Inhibitory concentrations (IC50) were determined from the linear regression of a plot of the logarithm of the concentration versus the percent inhibition.

human Cyclin E/CDK2 = biological target: T1, human Cyclin E/CDK2 (Homo sapiens, UniProt P24941); assay: CDK2 FlashPlate Assay; format: biochemical; details: inhibition of Rb phosphorylation, 33P-ATP, 25 minutes at room temperature
T1 construct: made in house; host or cells: insect cells
Protocol: To determine inhibition of CDK2 activity, purified recombinant retinoblastoma (Rb) protein was coated on 96 well FlashPlates (New England Nuclear, Boston, Mass.). […] Recombinant active human Cyclin E/CDK2 complexes were partially purified from extracts of insect cells. […] Plates were incubated for 25 minutes at room temperature with shaking, then washed and counted in the Topcount scintillation counter (Packard Instrument Co., Downers Grove, Ill.). Dilutions of test compounds were tested in duplicate in each assay. The percent inhibition of Rb phosphorylation, which is a measure of the inhibition of CDK2 activity, was determined according to the following formula: [formula]
where “test compound” refers to the average counts per minute of the test duplicates, “nonspecific” refers to the average counts per minute when no Cyclin E/CDK2 was added, and “total” refers to the average counts per minute when no compound was added.

[2] = system: RKO colon carcinoma cell line; assay: Tetrazolium dye proliferation assay, RKO; format: cell-based; details: Colon carcinoma cell, 120 h; MTT, 5 days post addition of test compound, 500 cell per well
Protocol: as §1, §2, §3
The colon carcinoma line RKO was also obtained from the ATCC and was tested according to the same protocol provided above except that the cell line RKO was plated at 500 cell per well.

Measured: IC50

CC(C)(N)CNc1cc(-c2ccc[nH]2)c2c3c(ccc(F)c13)NC2=O [Example 22, 5-(2-Amino-2-methyl-propylamino)-6-fluoro-3-(1H-pyrrol-2-yl)-1H-benzo[cd]indol-2-one]
≤ 10 µM: all assays above

O=C1Nc2ccc(F)c3c(N4CCOCC4)cc(-c4ccc[nH]4)c1c23 [Example 23, 6-Fluoro-5-morpholin-4-yl-3-(1H-pyrrol-2-yl)-1H-benzo[cd]indol-2-one]
≤ 10 µM: all assays above

O=C1Nc2ccc(F)c3c(N4CCNCC4)cc(-c4ccc[nH]4)c1c23 [Example 24, 6-Fluoro-5-piperazin-1-yl-3-(1H-pyrrol-2-yl)-1H-benzo[cd]indol-2-one acetic acid salt]
≤ 10 µM: all assays above

O=C1Nc2ccc(F)c3c(OCCO)cc(-c4ccc[nH]4)c1c23 [Example 16, 6-Fluoro-5-(2-hydroxyethoxy)-3-(1H-pyrrol-2-yl)-1H-benzo[cd]indol-2-one]
≤ 10 µM: all assays above

— patent US6531598B1, “Naphthostyrils” (Hoffmann-La Roche Inc., priority 2001, dated 2003)
